Source: article PMC11514314, “The aquastatin biosynthetic gene cluster encodes a versatile polyketide synthase capable of synthesising heteromeric depsides with diverse alkyl side chains” (Chemical Science, 2024)
Converted amounts (≈) assume the structure as drawn.

How the values were obtained:
B. subtilis (ATCC 6633) [1] = tested on: B. subtilis (ATCC 6633); parameters: method as in Crombie et al.[17]; settings: ref Crombie et al.[17]; cited from earlier work
S. aureus (ATCC 25923) [2] = tested on: S. aureus (ATCC 25923); parameters: method as in Crombie et al.[17]; settings: ref Crombie et al.[17]; cited from earlier work
MRSA (ATCC 33592) [3] = tested on: MRSA (ATCC 33592); parameters: method as in Crombie et al.[17]; settings: ref Crombie et al.[17]; cited from earlier work
[4] = tested on: Saccharomyces cerevisiae (ATCC 9763); settings: S. cerevisiae ATCC 9763; ref Crombie et al.[17]; cited from earlier work
[5] = tested on: NS-1 (ATCC TIB-18) mouse myeloma cells; parameters: method as in Crombie et al.[17]; settings: mouse myeloma NS-1; ref Crombie et al.[17]; cited from earlier work
[6] = tested on: NFF (ATCC PCS-201) human neonatal foreskin fibroblast cells; parameters: method as in Crombie et al.[17]; settings: ref Crombie et al.[17]; cited from earlier work
B. subtilis (ATCC 6633) [7] = assay: Antibacterial ProTOX bioassay, B. subtilis; type: cell-based; settings: Bacillus subtilis, ATCC6633; B. subtilis ATCC 6633, 48 h, 28 °C; read-out: Minimum inhibitory concentration (MIC) B. subtilis
Method: (§1) 12. Bioactivity screening.
(§2) Purified metabolites were dissolved in DMSO to create stock solutions of 10,000 µg/mL. An aliquot from each stock solution was transferred to the first well of Rows B to G on a 96-well microtitre plate and then serially diluted two-fold with DMSO across the 12 wells of the plate to achieve a 2,048-fold concentration gradient. Bioassay medium was added to an aliquot of each diluted solution to achieve a 100-fold dilution in the final bioassay. This […]
(§3) 0.1 µg/mL in 2% DMSO for yeasts. Row A served as a control with no test compound (indicating no inhibition), and Row H was left uninoculated (serving as a control for complete inhibition).
(§4) B. subtilis (ATCC 6633), S. aureus (ATCC 25923) and MRSA (ATCC 33592) were used as indicator species for antibacterial activity, employing the ProTOX bioassay platform. A bacterial suspension (50 mL in a 250 mL flask) was prepared in nutrient media by cultivating it for 24 h at 250 rpm and 28 °C. The suspension was diluted to an absorbance of 0.01 absorbance units per mL, and 10 µL aliquots were added to the wells of a 96-well microtitre plate containing the test compounds dispersed in 190 µL of nutrient broth (Amyl) with 10 µL resazurin (12.5 µg/mL). The plates were incubated at 28 °C for 48 h, during which the positive control wells changed colour from blue to light pink. Tetracycline was employed as a control for B. subtilis, while ampicillin was used for S. aureus and MRSA. MIC endpoints were determined visually. Absorbance was measured using a Multiskan Skyhigh Microplate Spectrophotometer (Thermo Fisher Scientific) at 605 nm.

S. aureus (ATCC 25923) [8] = assay: Antibacterial ProTOX bioassay, S. aureus; type: cell-based; settings: Staphylococcus aureus, ATCC25923; S. aureus ATCC 25923, 48 h, 28 °C; read-out: Minimum inhibitory concentration (MIC) S. aureus
Method: as §1, §2, §3, §4

MRSA (ATCC 33592) [9] = assay: Antibacterial ProTOX bioassay, MRSA; type: cell-based, methicillin-resistant S. aureus; settings: Staphylococcus aureus; MRSA ATCC 33592, 48 h, 28 °C; read-out: Minimum inhibitory concentration (MIC) MRSA
Method: as §1, §2, §3, §4

[10] = tested on: Saccharomyces cerevisiae (ATCC 9763); assay: Antifungal EuTOX bioassay, S. cerevisiae; type: cell-based; settings: Saccharomyces cerevisiae, ATCC9763; S. cerevisiae ATCC 9763, 48 h; read-out: Minimum inhibitory concentration (MIC) S. cerevisiae
Method: as §1, §2
(§5) 0.1 µg/mL in 2% DMSO for yeasts. Row A served as a control with no test compound (indicating no inhibition), and Row H was left uninoculated (serving as a control for complete inhibition). […]
(§6) MIC endpoints were determined visually. Absorbance was measured using a Multiskan Skyhigh […]
Saccharomyces cerevisiae (ATCC 9763) was used as indicator species for antifungal activity, employing the EuTOX bioassay platform. A yeast suspension (50 mL in a 250 mL flask) was prepared in 1% malt extract broth by cultivating it for 24 h at 250 rpm and 24 °C. The suspension was diluted to absorbances of 0.03 absorbance units per mL and 30 µL were added to the wells of a 96-well microtitre plate containing the test compounds dispersed in 100 µL of malt extract agar with bromocresol green (50 µg/mL). The plates were incubated at 28 °C for 48 h, during which the positive control wells changed colour from blue to yellow. Blasticidin S HCl was used

[11] = tested on: NS-1 (ATCC TIB-18) mouse myeloma cells; assay: Cytotoxicity resazurin assay, NS-1 cells; type: cell-based; settings: NS1; mouse myeloma NS-1 ATCC TIB-18, 96 h; read-out: IC50 NS-1
Method: as §1, §2, §5, §6, §6
(§7) NS-1 (ATCC TIB-18) mouse myeloma and NFF (ATCC PCS -201) human neonatal foreskin fibroblast cells were each inoculated in 96-well microtitre plates (190 µL) at 50,000 cells/mL in DMEM (Dulbecco's Modified Eagle Medium + 10% fetal bovine serum (FBS) + 1% penicillin/streptomycin (10,000 U/mL / 10,000 µg/mL, Life Technologies Cat. No. 15140122), together with resazurin (250 µg/mL; 10 µL) and incubated in 37 °C (5% CO2) incubator. The plates were incubated for 96 h during which time the positive control wells change colour from a blue to pink colour. The absorbance of each well was measured using Multiskan Skyhigh Microplate Spectrophotometer (Thermofisher Scientific) at 605 nm. Sparsomycin was used as a control. The IC50 values were determined using a sigmoidal dose-response model with variable slope in GraphPad Prism 8.

[12] = tested on: NFF (ATCC PCS-201) human neonatal foreskin fibroblast cells; assay: Cytotoxicity resazurin assay, NFF cells; type: cell-based; settings: Homo sapiens; neonatal foreskin fibroblast NFF, 96 h; read-out: IC50 NFF
Method: as §1, §2, §5, §6, §6, §7

[13] = tested on: mammalian adenosine triphosphatases; parameters: method as in PMID 8270486; settings: cited from earlier work
HIV-1 integrase = tested on: HIV-1 integrase; parameters: method as in PMID 19952429, PMID 15015729; settings: cited from earlier work
[14] = tested on: fatty acid synthase II (FAS II); settings: cited from earlier work
[15] = tested on: methicillin-resistant S. aureus (MRSA); parameters: method as in PMID 19952429; settings: cited from earlier work

SMILES | Minimum inhibitory concentration (MIC) B. subtilis (B. subtilis (ATCC 6633) [1]) [µg/mL] | Minimum inhibitory concentration (MIC) S. aureus (S. aureus (ATCC 25923) [2]) [µg/mL] | Minimum inhibitory concentration (MIC) MRSA (MRSA (ATCC 33592) [3]) [µg/mL] | Minimum inhibitory concentration (MIC) S. cerevisiae [4] [µg/mL] | IC50 NS-1 [5] [µM] | IC50 NFF [6] [µM] | MIC (B. subtilis (ATCC 6633) [7]) [µg/mL] | MIC (S. aureus (ATCC 25923) [8]) [µg/mL] | MIC (MRSA (ATCC 33592) [9]) [µg/mL] | MIC [10] [µg/mL] | IC50 [11] [µg/mL] | IC50 [12] [µg/mL] | inhibition of mammalian adenosine triphosphatases [13] | inhibition of HIV-1 integrase (HIV-1 integrase) | inhibition of fatty acid synthase II (FAS II) [14] | antibacterial activity against MRSA [15]
CCCCC/C=C\C/C=C\CCCCCCCc1cc(O[C@@H]2O[C@H](CO)[C@H](O)[C@H](O)[C@H]2O)cc(O)c1C(=O)Oc1cc(C)c(C(=O)O)c(O)c1 [2a, Geministatin A] | 1.6 (≈ 2.28 µM) | 6.3 (≈ 8.99 µM) | 6.3 (≈ 8.99 µM) | >200 | >50 | >100 | – | – | – | – | – | – | – | – | – | –
CCCCCCCCCCCCCCCc1cc(O[C@@H]2O[C@H](CO)[C@@H](O)[C@H](O)[C@H]2O)cc(O)c1C(=O)Oc1cc(C)c(C(=O)O)c(O)c1 [1a, Aquastatin A] | – | – | – | – | – | – | 1.6 (≈ 2.36 µM) | 12.5 (≈ 18.5 µM) | 1.6 (≈ 2.36 µM) | > 200 | > 100 | > 100 | inhibitor | inhibit | inhibit | demonstrated antibacterial activity
CCCCC/C=C\C/C=C\CCCCCCCc1cc(O)cc(O)c1C(=O)Oc1cc(C)c(C(=O)O)c(O)c1 [2b, Geministatin B] | 0.4 (≈ 0.743 µM) | 3.1 (≈ 5.75 µM) | 1.6 (≈ 2.97 µM) | >200 | >50 | >100 | – | – | – | – | – | – | – | – | – | –
